# Publication PMC5845537 (Frontiers in Pharmacology, 2018)
# Read-outs that look alike come from different tables or passages of the source. Marks after values point to notes of the source that are not given here.
# Legend:
# Long-Evans rats [1] = assay: Attentional set-shifting task (AST) in subchronic PCP-treated rats; assay type: in vivo, rat; conditions: for trials to criterion vs vehicle/vehicle or PCP/vehicle, EDR discrimination / trials to criterion vs PCP/vehicle, ED discrimination: subPCP-treated rats
# Protocol: Subchronic PCP treatment: The subPCP administration regimen used in rats was conducted as described in ([Goetghebeur and Dias, 2009]), which is a reliable method for inducing deficits in our hands. Rats in the subPCP experiments received injections of 5 mg/mL PCP or vehicle (saline) s.c. at a 1 mL/kg injection volume twice per day for 7 days. […] The mouse subPCP regimen was conducted as described in [Pedersen et al. (2014)]. Briefly, mice received vehicle or PCP (1.3 mg/mL concentration, 10 mL/kg injection volume) s.c once per day for 14 days followed by a 7-day washout prior to experimentation.
# Each test used male Long-Evans rats (Charles River, United States) aged 5–6 weeks when arriving at the research facility.
# The attentional set-shifting test (AST) methods used here were adapted from [Goetghebeur and Dias (2009)]. The apparatus used for the AST test was a 44 cm × 64 cm × 30 cm black non-transparent Perspex test box, divided into 3 equal-sized areas (a starting area separated from a choice area subdivided in two). In the choice area, two 11 cm diameter terracotta pots were placed recessed into the box floor (with a 2 cm lip remaining above the floor) and separated by a divider. Odor (oils from The Body Shop®, United Kingdom) and media cues (not previously presented to the rats) were added to the pots.
# Beginning on day 3 after the cessation of PCP administration, rats were subjected to a habituation period and trained to dig for a diet reward (half a Honey Loop cereal, Nestlé®) in terracotta pots filled with sawdust. On day 7 of PCP washout, rats were subjected to a single training session in which they were required to discriminate between two pots in order to find the reward. These discriminations were either based on differences in the digging media or the pot’s odor. On day 8 rats were presented with a series of increasingly difficult discriminations: a simple discrimination (SD), a compound discrimination (CD), two intra-dimensional shifts (ID1, ID2), an intra-dimensional shift reversal (ID2R), an extra-dimensional shift (ED) and an extra-dimensional shift reversal (EDR; see Table 1). Rats were required to meet a training criterion before moving on to a new discrimination type (for specifics, see Statistical Analysis, below).
# The first trial of each discrimination stage was a discovery trial in which rats were allowed to dig in both pots, and to self-correct if digging in the wrong pot. Rats were only given one discovery trial. The discovery trial was included in the trials to criterion if the rat dug first in the correct pot, but not if the rat self-corrected an incorrect initial dig.
# In the acute vortioxetine study, prior to the start of behavioral experiments on Day 8 of washout from PCP treatment, animals were randomly administered either 20% CD (Veh), […], or 64 mg/kg modafinil 30 min p.o. as described above (included as a positive control). Thus, the treatment groups in the acute vortioxetine study were as follows: Veh/Veh, PCP/Veh, PCP/1 mg/kg vortioxetine, PCP/3 mg/kg vortioxetine, PCP/10 mg/kg vortioxetine, or PCP/64 mg/kg modafinil.
# Food dosing lasted from the first day of sub-chronic PCP administration and until the last day of the washout period (total of 14 days). After the end of the washout period where behavioral testing started, rats were fed with the same conditioned diet, however, under food restriction (∼11 g of diet per day per rat). In addition, some PCP-treated animals were fed vehicle food, but received acute injections of either 10 mg/kg vortioxetine, or 64 mg/kg modafinil, as described above. The treatment groups for the subchronic vortioxetine administration study were as follows: Veh/Veh, PCP/Veh, PCP/0.22 g/kg vortioxetine food, PCP/1.8 g/kg vortioxetine food, PCP/10 mg/kg vortioxetine 1 h s.c., or PCP/64 mg/kg 30 min p.o.
# A third experiment was conducted to examine the effects of acute SERT inhibition or 5-HT3 receptor antagonism on subPCP-induced AST impairments. […]
# sigma 1 receptors = target: sigma 1 receptors; design: method as in Sanchez et al., 2003; conditions: ref Sanchez et al., 2003; cited from earlier work
# GABAB receptor = target: T1, GABAB receptor (Rattus norvegicus, UniProt Q9Z0U4); assay: Ex vivo autoradiography, GABAB receptor saturation binding ([3H]CGP54626), medial prefrontal cortex; conditions: rat medial prefrontal cortex; for GABAB receptors Bmax: [3H]CGP54626
# T1 construct: 12 μm coronal sections were collected from an area ranging from approximately +4.2 mm to +2.3 mm anterior to Bregma; from tissue; host or cells: rat brain cryosections, medial prefrontal cortex (prelimbic and infralimbic)
# T1 sequence (Q9Z0U4 17-960 limits assumed): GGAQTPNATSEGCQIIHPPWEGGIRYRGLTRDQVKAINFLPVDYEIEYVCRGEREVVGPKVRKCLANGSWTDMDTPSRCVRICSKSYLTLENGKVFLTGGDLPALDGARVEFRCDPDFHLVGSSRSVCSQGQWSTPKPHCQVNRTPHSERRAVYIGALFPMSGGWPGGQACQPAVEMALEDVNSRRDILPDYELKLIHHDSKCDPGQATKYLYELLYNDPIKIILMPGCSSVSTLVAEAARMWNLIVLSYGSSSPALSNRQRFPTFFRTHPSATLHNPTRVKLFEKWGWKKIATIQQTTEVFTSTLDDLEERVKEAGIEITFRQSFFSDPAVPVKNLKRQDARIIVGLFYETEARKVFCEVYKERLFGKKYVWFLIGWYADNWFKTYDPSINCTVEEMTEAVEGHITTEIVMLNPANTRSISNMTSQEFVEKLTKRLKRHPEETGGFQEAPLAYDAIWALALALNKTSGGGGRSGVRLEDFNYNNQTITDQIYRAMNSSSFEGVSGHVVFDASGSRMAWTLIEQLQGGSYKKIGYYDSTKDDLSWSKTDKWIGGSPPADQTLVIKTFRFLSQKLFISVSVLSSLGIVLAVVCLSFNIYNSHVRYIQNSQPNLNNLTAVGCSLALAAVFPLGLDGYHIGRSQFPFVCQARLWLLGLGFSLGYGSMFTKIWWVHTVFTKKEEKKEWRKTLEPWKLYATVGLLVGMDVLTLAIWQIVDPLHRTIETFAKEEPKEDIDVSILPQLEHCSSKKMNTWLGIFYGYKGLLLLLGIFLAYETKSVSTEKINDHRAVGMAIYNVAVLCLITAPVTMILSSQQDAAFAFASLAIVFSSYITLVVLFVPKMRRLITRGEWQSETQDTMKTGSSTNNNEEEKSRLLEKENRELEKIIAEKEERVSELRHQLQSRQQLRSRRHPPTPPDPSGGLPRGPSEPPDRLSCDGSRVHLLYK
# T1 sequence (O88871 41-940 partner): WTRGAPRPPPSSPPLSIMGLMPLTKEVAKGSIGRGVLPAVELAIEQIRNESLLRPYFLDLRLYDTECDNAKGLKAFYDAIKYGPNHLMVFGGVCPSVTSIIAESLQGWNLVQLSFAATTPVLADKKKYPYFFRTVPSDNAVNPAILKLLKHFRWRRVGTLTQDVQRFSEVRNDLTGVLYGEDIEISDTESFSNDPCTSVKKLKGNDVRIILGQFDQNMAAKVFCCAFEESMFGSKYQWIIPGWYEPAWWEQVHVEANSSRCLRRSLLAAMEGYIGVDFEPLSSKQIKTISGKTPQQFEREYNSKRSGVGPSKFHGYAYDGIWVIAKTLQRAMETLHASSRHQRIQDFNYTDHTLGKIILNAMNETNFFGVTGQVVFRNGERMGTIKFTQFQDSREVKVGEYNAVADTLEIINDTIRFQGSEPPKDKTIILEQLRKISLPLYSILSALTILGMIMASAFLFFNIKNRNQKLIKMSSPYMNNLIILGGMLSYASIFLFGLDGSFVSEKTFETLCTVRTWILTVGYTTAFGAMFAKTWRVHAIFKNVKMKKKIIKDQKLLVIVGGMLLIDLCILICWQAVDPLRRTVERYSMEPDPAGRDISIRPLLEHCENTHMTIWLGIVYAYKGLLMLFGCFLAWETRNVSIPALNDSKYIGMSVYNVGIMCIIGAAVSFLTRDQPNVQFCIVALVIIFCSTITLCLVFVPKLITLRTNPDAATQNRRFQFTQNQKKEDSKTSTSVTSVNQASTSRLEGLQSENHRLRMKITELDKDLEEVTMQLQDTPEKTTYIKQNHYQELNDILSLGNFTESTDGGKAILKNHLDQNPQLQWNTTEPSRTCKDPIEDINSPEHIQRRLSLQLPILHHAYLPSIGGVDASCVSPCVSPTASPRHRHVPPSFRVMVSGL
# From the text: (§1) Rats used in ex vivo autoradiography (EVA) experiments were randomly assigned to one of four experimental groups characterized by either subchronic saline or PCP (as described above) along with either vehicle or vortioxetine-infused food (1.8 g vortioxetine/kg food weight, as described in the attentional set shifting task). On day 8 of PCP withdrawal, rats were anesthetized using CO2 and killed by decapitation. Brains were quickly and gently removed from the skull, flash frozen on powdered dry ice, and stored at -20°C until sectioning. Later, 12 μm coronal sections were collected from an area ranging from approximately +4.2 mm to +2.3 mm anterior to Bregma ([Paxinos and Watson, 1998]) using a cryostat (MicroM, Germany) and were thaw-mounted on glass microscope slides. This range of coronal slices was chosen in order to study the prelimbic and infralimbic subregions of the medial prefrontal cortex, given the importance of these regions in tests of executive function such as the attentional set shifting task ([Ng et al., 2007]). After the tissue mounted on the microscope slides had dried thoroughly (in order to reduce damage from freezing), slides were packed into slide boxes with desiccator pellets, and stored at -20°C for use in EVA saturation binding and competition experiments.
# (§2) Each of the EVA procedures used in this study are variations on a similar theme. On the day of an experiment, slide-boxes were defrosted under a constant stream of air at room temperature until the boxes were dry and equilibrated with the environment in terms of temperature. This step was undertaken in order to ensure brain tissue was not damaged by frosting due to a sudden change in humidity. Prior to any binding experiments, slides were preincubated in the appropriate preincubation buffer and dried at room temperature. Subsequently, tissue was incubated in an assay buffer containing a radioligand appropriate for the receptor of interest, then rinsed in assay buffer, and dried overnight in a vacuum desiccator. Specific information on the contents of the preincubation buffers, assay buffers and other assay conditions are listed in Table 2. Finally, slides were opposed to a tritium-sensitive phosphor screen (Fuji imaging plate, GE Healthcare, Pittsburgh, PA, United States) for 5 days before being read in a phosphorimager (Typhoon FLA7000, GE Healthcare). Analysis methods are listed below under statistical analyses.
# (§3) In saturation binding experiments, the concentration of the relevant radioligand in the assay buffer was systematically varied in order to determine the KD and Bmax of the receptor in question. At each radioligand concentration, the non-specific binding was determined on a separate slide by including a high concentration of a non-radioactive competitor ligand in the assay buffer along with the radioligand. For GABAA receptor saturation binding experiments, [^3H]muscimol was examined in quarter log steps ranging from 0.56 to 300 nM. For GABAB receptor saturation binding experiments, [^3H]CGP54626 was examined in quarter log steps ranging from 0.17 to 100 nM.
# For saturation binding studies, the primary dependent measures were pKD and Bmax. First, a standard curve was generated by measuring optical intensity from a slide of tritium standards (American Radiolabeled Chemicals, St. Louis, MO, United States) included in the slide cassette during exposure. A linear regression was performed to determine the relationship between intensity and bound radioactivity (measured on the standards in units of μCi/g). Next, average intensity values from the non-specific bound condition for each concentration of radioligand was subtracted from intensity values from the total bound condition to produce a measure of specific binding for each radioligand concentration. These optical intensity values were transformed into bound radioactivity (expressed as nCi/mg) measurements by interpolation from the standard curve noted above. […]
# GABAA receptor [2] = tested on: GABAA receptor; design: method as in Kim et al., 2000; conditions: i.c.v. infusion 1 pmol/10 μL/h for 7 days; cortex and CA3 sub-region of the hippocampus; ref Kim et al., 2000; cited from earlier work
# SERT = conditions: ref Pehrson et al., 2015; cited from earlier work
# mice = tested on: mice; design: method as in Hashimoto et al. (2007); conditions: ref Hashimoto et al. (2007), cited from earlier work; for effect on deficits in OR performance: repeated administration
# GABAA receptor [3] = assay: Ex vivo autoradiography, GABAA receptor saturation binding ([3H]muscimol), medial prefrontal cortex; design: species or system rat; conditions: rat medial prefrontal cortex
# From the text: as §1, §2, §3
# For saturation binding studies, the primary dependent measures were pKD and Bmax. […] A linear regression was performed to determine the relationship between intensity and bound radioactivity (measured on the standards in units of μCi/g). […] These optical intensity values were transformed into bound radioactivity (expressed as nCi/mg) measurements by interpolation from the standard curve noted above. […]
# Long-Evans rats [4] = tested on: Long-Evans rats; design: method as in Redrobe et al., 2012; conditions: same subPCP model; ref Redrobe et al., 2012; cited from earlier work
# [5] = acute vortioxetine study, 64 mg/kg 30 min p.o., vs PCP/Veh
# [6] = subchronic vortioxetine study, acute 64 mg/kg, p < 0.001
structure (smiles),measurement,setting,value
Cc1nccn1CC1CCc2c(c3ccccc3n2C)C1=O (centres unmarked) [ondansetron],"trials to criterion vs vehicle/vehicle or PCP/vehicle, EDR discrimination",Long-Evans rats [1]; acute 1.6 mg/kg 1 h s.c.,did not differ
same,"trials to criterion vs PCP/vehicle, ED discrimination","Long-Evans rats [1]; acute 1.6 mg/kg 1 h s.c., p < 0.05",significant reductions
CN(C)CCC[C@@]1(c2ccc(F)cc2)OCc2cc(C#N)ccc21 [escitalopram],"trials to criterion vs vehicle/vehicle or PCP/vehicle, EDR discrimination",Long-Evans rats [1]; acute 0.5 mg/kg 1 h s.c.,did not differ
same,"trials to criterion vs PCP/vehicle, ED discrimination","Long-Evans rats [1]; acute 0.5 mg/kg 1 h s.c., p < 0.001",significant reductions
same,Ki,sigma 1 receptors,~100 nM
"NC(=O)C[S+]([O-])C(c1ccccc1)c1ccccc1 (centres unmarked) [modafinil, Modafinil]","reversal of subPCP-induced impairment, ED discrimination (trials to criterion)",Long-Evans rats [1]; [5],significantly reversed
same,"reversal of subPCP-induced impairment, EDR discrimination (trials to criterion)",Long-Evans rats [1]; [5],neither acute vortioxetine nor modafinil significantly reversed
same,"trials to criterion vs PCP/vehicle, ED discrimination","Long-Evans rats [1]; ondansetron/escitalopram study, 64 mg/kg 30 min p.o., p < 0.001",significant reductions
same,"trials to criterion vs vehicle/vehicle or PCP/vehicle, EDR discrimination","Long-Evans rats [1]; ondansetron/escitalopram study, 64 mg/kg 30 min p.o., p < 0.05",significantly fewer trials
same,"AST performance in subPCP-treated rats, ED",Long-Evans rats [1]; [6],significantly improved performance
same,"AST performance in subPCP-treated rats, EDR",Long-Evans rats [1]; [6],significantly improved performance
C[C@H](NC[C@H](O)CP(=O)(O)CC1CCCCC1)c1ccc(Cl)c(Cl)c1 [[^3H]CGP54626],GABAB receptors Bmax,GABAB receptor; treatment group PCP/Veh,414 ± 33^a fmol/mg
same,GABAB receptors Bmax,GABAB receptor; treatment group PCP/Vor,"342 ± 27^a,c fmol/mg"
same,GABAB receptors Bmax,GABAB receptor; treatment group Veh/Veh,541 ± 38 fmol/mg
same,GABAB receptors Bmax,GABAB receptor; treatment group Veh/Vor,475 ± 34 fmol/mg
same,GABAB receptors pKD ([3H]CGP54626),GABAB receptor; treatment group PCP/Veh,8.7 ± 0.08
same,GABAB receptors pKD ([3H]CGP54626),GABAB receptor; treatment group PCP/Vor,8.7 ± 0.06
same,GABAB receptors pKD ([3H]CGP54626),GABAB receptor; treatment group Veh/Veh,8.6 ± 0.04
same,GABAB receptors pKD ([3H]CGP54626),GABAB receptor; treatment group Veh/Vor,8.6 ± 0.08
C[C@]12N[C@H](Cc3ccccc31)c1ccccc12 [MK-801],"GABAA receptor binding ([3H]-muscimol, [3H]-flunitrazepam)",GABAA receptor [2],significant increase
COCCCC/C(=N\OCCN)c1ccc(C(F)(F)F)cc1 [fluvoxamine],SERT occupancy ED80,SERT,≈ 1.8 mg/kg
same,effect on deficits in OR performance,mice,reversed deficits
same,effect on subPCP-induced impairments in OR performance,mice; single supra-pharmacological dose 20 mg/kg,improved
NCc1cc(=O)[nH]o1 [[^3H]muscimol],GABAA receptors pKD ([3H]muscimol),GABAA receptor [3]; treatment group PCP/Veh,7.8 ± 0.03
same,GABAA receptors pKD ([3H]muscimol),GABAA receptor [3]; treatment group PCP/Vor,"7.6 ± 0.03^a,b,c"
same,GABAA receptors pKD ([3H]muscimol),GABAA receptor [3]; treatment group Veh/Veh,7.7 ± 0.03
same,GABAA receptors pKD ([3H]muscimol),GABAA receptor [3]; treatment group Veh/Vor,7.8 ± 0.06
FC(F)c1ncn2c1Cn1ncnc1-c1cc(Br)ccc1-2 [RO4938581],"attenuation of subPCP-induced impairment, ED discrimination of the AST",Long-Evans rats [4],significantly attenuated
same,"attenuation of subPCP-induced impairment, EDR discrimination of the AST",Long-Evans rats [4],significantly attenuated
CCCN(CCC)CCc1ccc(OC)c(OCCc2ccccc2)c1 [NE-100],effect on fluvoxamine's reversal of OR deficits,mice; sigma1 receptor antagonist given with fluvoxamine,blocked this effect
Fc1ccc([C@@H]2CCNC[C@H]2COc2ccc3c(c2)OCO3)cc1 [paroxetine],effect on deficits in OR performance,mice,but not paroxetine reversed deficits
same,effect on subPCP-induced impairments in OR performance,mice; single supra-pharmacological dose 10 mg/kg,improved
